# Test results reported in patent US20180028473A1, “NUTRIENTS SOLUTIONS” (Mitochondrial Substrate Invention Ltd., priority 2014, published 2018).
# Tests used:
# [1] = tested on: Cognitively healthy young adult male Wistar rats; assay: Passive avoidance test, scopolamine given 7 days after end of supplementation; format: in vivo, rat
# Method: Cognitively healthy young adult male Wistar rats weighing 260-280 g were randomly ascribed to groups and supplemented daily with aqueous solution of 5 mg/kg of compound of formula (I) in water of the invention for seven consecutive days. Then, after the break in the supplementation for next seven days, scopolamine 1 mg/kg i.p. or vehicle was administered (at day 14) 30 min before the acquisition trial in the passive avoidance test (“Compound (I)+Scopolamine” group). In “Vehicle+Vehicle” group, rats received vehicle for seven consecutive days and then vehicle 30 min before the acquisition trial in the passive avoidance test at 14th day. In “Vehicle+Scopolamine” group, rats received vehicle for seven consecutive days and then scopolamine 1 mg/kg i.p. 30 min before the acquisition trial in the passive avoidance test at 14th day. […] Passive avoidance test requires the rats to behave contrary to their innate tendencies for preference of dark areas and avoidance of bright ones. The apparatus used in this test is composed by a dark compartment and a bright compartment. The latency to enter the dark chamber was measured using 300 s maximum trial duration. In the acquisition trial, the animal received a 0.4 mA electric shock for 3 s when entering the dark chamber. Retention trial was performed 24 h after the acquisition trial. […]
# [2] = in vivo; cited from earlier work
smiles,measurement,setting,value
"C[N+](C)(C)CCO [compound of formula (I), choline succinate (2:1)]",Relative risk of disturbance of cognitive function,[1]; as compared to Vehicle+Scopolamine group,0.51
same,Rate of disturbance of cognitive function (latency <207 s),"[1]; retention trial, scopolamine 1 mg/kg i.p.",0.36
same,elimination half-life,[2],less than 1.2 h
